{"source": "ChEMBL document CHEMBL1128384", "about": "“Cardioselective antiischemic ATP-sensitive potassium channel openers. 2. Structure-activity studies on benzopyranylcyanoguanidines: modification of the benzopyran ring” (J Med Chem, 1995)", "assay_type_in_all_cases": "functional", "key": {"Rattus norvegicus [1]": {"species": "Rattus norvegicus", "assay": "Vasorelaxant potency was assessed by measurement of inhibition of methoxamine-contracted rat aorta"}, "Rattus norvegicus [2]": {"species": "Rattus norvegicus", "assay": "In vitro anti-ischemic potency was determined by measurement of concentration necessary for increase in time to contracture by 25% in the globally ischemic rat hearts"}, "[3]": {"assay": "Ratio of anti-ischemic potency and vasorelaxant potency in rat."}, "Rattus norvegicus [4]": {"species": "Rattus norvegicus", "assay": "Antiischemic potency was determined by increase in time to contracture at a concentration of 10 uM in the globally ischemic rat hearts"}}, "data": [{"smiles": "CC1(C)Oc2cc(-c3ncco3)c(-c3ncco3)cc2[C@@H](NC(=O)Nc2ccccc2)[C@@H]1O", "values": [{"measurement": "IC50", "setting": "Rattus norvegicus [1]", "result": 1.4, "unit": "µM"}, {"measurement": "EC25", "setting": "Rattus norvegicus [2]", "result": 13, "unit": "µM"}, {"measurement": "Ratio", "setting": "[3]", "result": 9.3}]}, {"smiles": "CC1(C)C[C@H](/N=C(\\NC#N)Nc2ccccc2)c2cc(C#N)ccc21", "values": [{"measurement": "IC50", "setting": "Rattus norvegicus [1]", "result": 2.6, "unit": "µM"}, {"measurement": "EC25", "setting": "Rattus norvegicus [2]", "result": 22, "unit": "µM"}, {"measurement": "Ratio", "setting": "[3]", "result": 8.5}]}, {"smiles": "CC1(C)C[C@H](/N=C(\\NC#N)Nc2ccccc2)c2cc(C#N)ccc2O1", "values": [{"measurement": "IC50", "setting": "Rattus norvegicus [1]", "result": 14, "unit": "µM"}, {"measurement": "Increase", "setting": "Rattus norvegicus [4]", "result": 0, "unit": "%"}]}, {"smiles": "CC1(C)C=C(NC(=O)Nc2ccccc2)c2cc(C#N)ccc2O1", "values": [{"measurement": "IC50", "setting": "Rattus norvegicus [1]", "result": 17, "unit": "µM"}, {"measurement": "Increase", "setting": "Rattus norvegicus [4]", "result": 7, "unit": "%"}]}, {"smiles": "CC(=O)O[C@H]1[C@H](NC(=O)Nc2ccccc2)c2cc(C#N)ccc2OC1(C)C", "values": [{"measurement": "IC50", "setting": "Rattus norvegicus [1]", "result": 4.4, "unit": "µM"}, {"measurement": "Increase", "setting": "Rattus norvegicus [4]", "result": 3, "unit": "%"}]}, {"smiles": "CC1(C)Oc2ccc(C#N)cc2[C@@H](NC(=O)Nc2ccccc2)[C@@H]1O", "values": [{"measurement": "EC25", "setting": "Rattus norvegicus [2]", "result": 5.1, "unit": "µM"}]}, {"smiles": "CC1(C)C[C@H](NC(=O)Nc2ccccc2)c2cc(C#N)ccc2O1", "values": [{"measurement": "IC50", "setting": "Rattus norvegicus [1]", "result": 1.8, "unit": "µM"}, {"measurement": "EC25", "setting": "Rattus norvegicus [2]", "result": 5.3, "unit": "µM"}, {"measurement": "Ratio", "setting": "[3]", "result": 2.9}]}, {"smiles": "CC1(C)Oc2ccc(C#N)cc2[C@@H](NC(=O)Nc2ccccc2)[C@H]1O", "values": [{"measurement": "IC50", "setting": "Rattus norvegicus [1]", "result": 6.2, "unit": "µM"}, {"measurement": "EC25", "setting": "Rattus norvegicus [2]", "result": 103, "unit": "µM"}, {"measurement": "Ratio", "setting": "[3]", "result": 16.5}]}, {"smiles": "CC1(C)C[C@H](NC(=O)Nc2ccccc2)c2cc(C#N)ccc21", "values": [{"measurement": "IC50", "setting": "Rattus norvegicus [1]", "result": 1.3, "unit": "µM"}, {"measurement": "EC25", "setting": "Rattus norvegicus [2]", "result": 9.4, "unit": "µM"}, {"measurement": "Ratio", "setting": "[3]", "result": 7.2}]}, {"smiles": "CC(=O)c1ccc2c(c1)[C@@H](NC(=O)Nc1ccccc1)[C@H](O)C(C)(C)O2", "values": [{"measurement": "IC50", "setting": "Rattus norvegicus [1]", "result": 1.2, "unit": "µM"}, {"measurement": "EC25", "setting": "Rattus norvegicus [2]", "result": 4.5, "unit": "µM"}, {"measurement": "Ratio", "setting": "[3]", "result": 3.8}]}, {"smiles": "CC1(C)C=C(/N=C(\\NC#N)Nc2ccccc2)c2cc(C#N)ccc2O1", "values": [{"measurement": "IC50", "setting": "Rattus norvegicus [1]", "result": 6.9, "unit": "µM"}, {"measurement": "Increase", "setting": "Rattus norvegicus [4]", "result": 0, "unit": "%"}]}, {"smiles": "CC1(C)c2ccc([N+](=O)[O-])cc2[C@@H](NC(=O)Nc2ccccc2)[C@@H]1O", "values": [{"measurement": "IC50", "setting": "Rattus norvegicus [1]", "result": 0.18, "unit": "µM"}, {"measurement": "EC25", "setting": "Rattus norvegicus [2]", "result": 6.5, "unit": "µM"}, {"measurement": "Ratio", "setting": "[3]", "result": 36.1}]}, {"smiles": "CC1(C)Oc2ccc(C(F)(F)F)cc2[C@@H](NC(=O)Nc2ccccc2)[C@@H]1O", "values": [{"measurement": "IC50", "setting": "Rattus norvegicus [1]", "result": 1.1, "unit": "µM"}, {"measurement": "EC25", "setting": "Rattus norvegicus [2]", "result": 2.7, "unit": "µM"}, {"measurement": "Ratio", "setting": "[3]", "result": 2.5}]}, {"smiles": "N#Cc1ccc2c(c1)[C@@H](NC(=O)Nc1ccccc1)[C@H](O)CO2", "values": [{"measurement": "Increase", "setting": "Rattus norvegicus [4]", "result": 6, "unit": "%"}]}, {"smiles": "CC1(C)Oc2ccc(C#N)cc2[C@@H](/N=C(\\NC#N)Nc2ccccc2)[C@H]1O", "note": "(relative stereo)", "values": [{"measurement": "Increase", "setting": "Rattus norvegicus [4]", "result": 9, "unit": "%"}]}, {"smiles": "CC1(C)Oc2cc(-c3ncco3)c(-c3ncco3)cc2[C@@H](/N=C(\\NC#N)Nc2ccccc2)[C@@H]1O", "note": "(relative stereo)", "values": [{"measurement": "IC50", "setting": "Rattus norvegicus [1]", "result": 8.8, "unit": "µM"}, {"measurement": "Increase", "setting": "Rattus norvegicus [2]", "result": 6, "unit": "%"}]}, {"smiles": "CC1(C)Oc2ccc(C#N)cc2[C@@H](/N=C(\\NC#N)Nc2ccccc2)[C@@H]1O", "note": "(relative stereo)", "values": [{"measurement": "IC50", "setting": "Rattus norvegicus [1]", "result": 1.4, "unit": "µM"}, {"measurement": "EC25", "setting": "Rattus norvegicus [2]", "result": 11, "unit": "µM"}, {"measurement": "Ratio", "setting": "[3]", "result": 7.9}]}, {"smiles": "CC(=O)O[C@H]1[C@H](/N=C(\\NC#N)Nc2ccccc2)c2cc(C#N)ccc2OC1(C)C", "note": "(relative stereo)", "values": [{"measurement": "IC50", "setting": "Rattus norvegicus [1]", "result": 2.6, "unit": "µM"}, {"measurement": "EC25", "setting": "Rattus norvegicus [2]", "result": 6, "unit": "µM"}, {"measurement": "Ratio", "setting": "[3]", "result": 2.3}]}, {"smiles": "N#CN/C(=N\\[C@@H]1c2cc(C#N)ccc2OC[C@H]1O)Nc1ccccc1", "note": "(relative stereo)", "values": [{"measurement": "IC50", "setting": "Rattus norvegicus [1]", "result": 194, "unit": "µM"}, {"measurement": "Increase", "setting": "Rattus norvegicus [4]", "result": 0, "unit": "%"}]}, {"smiles": "CC(=O)c1ccc2c(c1)[C@@H](/N=C(\\NC#N)Nc1ccccc1)[C@H](O)C(C)(C)O2", "note": "(relative stereo)", "values": [{"measurement": "IC50", "setting": "Rattus norvegicus [1]", "result": 4, "unit": "µM"}, {"measurement": "EC25", "setting": "Rattus norvegicus [2]", "result": 8.5, "unit": "µM"}, {"measurement": "Ratio", "setting": "[3]", "result": 2.1}]}, {"smiles": "CC1(C)c2ccc([N+](=O)[O-])cc2[C@@H](/N=C(\\NC#N)Nc2ccccc2)[C@@H]1O", "note": "(relative stereo)", "values": [{"measurement": "EC25", "setting": "Rattus norvegicus [2]", "result": 10.7, "unit": "µM"}, {"measurement": "Ratio", "setting": "[3]", "result": 18.8}]}, {"smiles": "CC1(C)Nc2ccc(C#N)cc2[C@@H](/N=C(\\NC#N)Nc2ccccc2)[C@@H]1O", "note": "(relative stereo)", "values": [{"measurement": "Increase", "setting": "Rattus norvegicus [4]", "result": 0, "unit": "%"}]}, {"smiles": "CC1(C)Oc2ccc(C(F)(F)F)cc2[C@@H](/N=C(\\NC#N)Nc2ccccc2)[C@@H]1O", "note": "(relative stereo)", "values": [{"measurement": "IC50", "setting": "Rattus norvegicus [1]", "result": 9.2, "unit": "µM"}, {"measurement": "EC25", "setting": "Rattus norvegicus [2]", "result": 10, "unit": "µM"}, {"measurement": "Ratio", "setting": "[3]", "result": 0.5}]}, {"smiles": "CC1(C)Oc2ccc(N)cc2[C@@H](/N=C(\\NC#N)Nc2ccccc2)[C@@H]1O", "note": "(relative stereo)", "values": [{"measurement": "IC50", "setting": "Rattus norvegicus [1]", "result": 59.6, "unit": "µM"}, {"measurement": "Increase", "setting": "Rattus norvegicus [2]", "result": 0, "unit": "%"}]}, {"smiles": "CC1(C)Oc2ccc(C#N)cc2[C@@H](N2CCCC2=O)[C@@H]1O", "note": "[CROMAKALIM]", "values": [{"measurement": "EC25", "setting": "Rattus norvegicus [2]", "result": 8.9, "unit": "µM"}, {"measurement": "Ratio", "setting": "[3]", "result": 278.1}]}]}
